Results: patent publication US6660722B2, “Therapeutical treatments” (Laboratoires Goemar S.A., priority 2001, dated 2003)

Experiments:
[1] = tested on: mouse breast cancer cell line 64 Ptas; experiment: tumor growth in vivo in mice inoculated with breast cancer cells; conditions: daily intraperitoneal injection during 14 days; doses 100 and 250 μg per injection (dose of the value not stated)
Method: The above said data have been confirmed by additional experiments where the effects of soluble laminarin on tumor growth in vivo were evaluated; yeast derived glucan BEI was used for comparison.
In these additional experiments, mice were inoculated with mouse breast cancer cell line 64 Ptas. Experimental treatment was achieved by daily intraperitoneal injection during 14 days of two different doses of soluble laminarin and BEI diluted in PBS; the said two different doses were respectively 100 and 250 μg of laminarin per injection.
At the end of the 14 days treatment, the mice were killed, tumors were removed and weighted.

[2] = tested on: target cells of tumor cell line YAC-1; experiment: in vitro cytotoxicity assay of NK cells (mouse splenocytes pre-treated with glucan) on YAC-1 target cells, CYTOTOX 96 LDH release; type: cell-based, Balb/c mice; design: stimulated NK cells more cytotoxic than the control: concentration or dose not given beside the values; conditions: for NK cell killing more active than BEI: versus BEI-stimulated cell killing; for NK cell killing more active than lentinan: versus Lentinan-stimulated NK cell killing; for stimulated NK cells more cytotoxic than the control: versus unstimulated NK cells
Method: In that respect, Applicants first carried out an in vitro cytotoxicity assay on spleen cells isolated from spleen of Balb/c mice by standard methods.
These tests were conducted to evaluate the effects of soluble laminarin on the cytotoxicity of NK (Natural Killer) cells of mouse and to compare these effects with those of two known glucans, ie.
The spleens isolated from the above said Balb/c mice were placed into Petri dishes containing RPMI 1640 medium obtained from Life Technologies USA, supplemented with 5% by weight of FCS (fetal calf serum from Life Technologies USA). The spleens were cut into small pieces and a suspension was made by pressing the minced spleens against the bottom of Petri dishes containing PBS (Phosphate Buffered Saline obtained from Biowhitaker Inc,8830 Biggsford Road, Walkersville, Md. 21793 USA). The thus obtained pieces of tissue were gently teased over stainless steel screens using a plunger of a 5-ml syringe. Large debris and cell clumps were removed by layering the cell suspension over 3 ml of heat-inactivated FCS for 10 minutes on ice. After elimination of erythrocytes by incubation during 10 seconds in distilled water and five washes in cold PBS, the thus obtained cells which are called splenocytes, were resuspended in PBS and counted.
The evaluation of the cytotoxicity of these cell suspensions was conducted by suing a non radioactive cytotoxicity assay marketed under the trademark CYTOTOX 96 by Promega, Madison, Wis., USA.
For these experiments, the splenocytes which are also called “effector cells” were pre-treated during 30 minutes by mixing the suspensions containing them respectively with soluble laminarin, with lentinan and with BEI glucan; the mixtures were subsequently incubated with suspensions of target cells of tumor cell line YAC-1 which is known to be relatively […] to normal inactivated N K cells.
The specificity of the assay was established by using the following three different ratios effector cells/target cells denoted ET: 10:1, 50:1 and 100:1.
For each ratio, 3 counts were carried out and experiments were repeated 3 times on 3 different days.
Controls consisted of effector cells incubated only with PBS.
More particularly, the above cell suspensions of splenocytes (effector cells) were diluted to 10^6 cells/ml and placed in individual wells of V-shaped 96-well microplates at a concentration of 0.1 ml/well.
Laminarin, lentinan and BEI glucan which occur in the form of powders, were added after dissolution in PBS at an identical concentration of 2 μg/ml in PBS and the plates were incubated for 30 minutes at 37° C. in an humidified CO2 incubator.
After incubation, the plates i.e. the incubated cells contained in the wells were washed three times with RPMI 1640 medium, and 50 μl of the suspension of target cell line YAC-1 were added in each well, respecting the above “effector cells/target cells” ratios or E T: 10:1, 50:1 and 100:1.
For each of these ratios, 3 individual wells were used, the number of target cells being respectively 10^4,2×10^3 and 1×10^3.
In addition, target cells for spontaneous release control, target cells for maximum release control and effector cells release control were introduced into appropriate wells, i.e. 3 individual wells for each concentration used.
Basically, it is necessary to obtain the values of spontaneous release from both target and effector cells, and these values serve as a background. The maximum release control serves as 100%.
After spinning the plates at 250 g for 5 minutes in a centrifuge, the plates were incubated for 4 hours at 35° C. in a humidified CO2 incubator.
For evaluating the cytotoxicity activity of the effector or N K cells, procedure was as follows, using the instructions of the manufacturer PROMEGA.
A quantity of 10 μl of lysis solution, included in the Kit, was added 45 min before the end of incubation into appropriate control wells, i.e. into wells with maximum release control. […]

[3] = solubility of soluble laminarin; type: physicochemical
oral LD 50 in rats = type: in vivo; conditions: given orally in rats
Method: Its LD 50 is high and was determined as to be greater than 2000 mg/Kg given orally in rats; furthermore there are no special handling requirements.

laminarin [soluble laminarin]
weight of the tumors with respect to the weight of the tumors treated with the control [1]: 28%
NK cell killing more active than BEI ([2]; ET 10:1): 132%
NK cell killing more active than lentinan ([2]; ET 10:1): 133%
stimulated NK cells more cytotoxic than the control ([2]; ET 10:1): 245%
NK cell killing more active than BEI ([2]; ET 50:1): 122%
NK cell killing more active than lentinan ([2]; ET 50:1): 123%
stimulated NK cells more cytotoxic than the control ([2]; ET 50:1): 196%
NK cell killing more active than BEI ([2]; ET 100:1): 129%
NK cell killing more active than lentinan ([2]; ET 100:1): 130%
stimulated NK cells more cytotoxic than the control ([2]; ET 100:1): 180%
solubility in ethanol, 2-propanol and acetone ([3]; ethanol, 2-propanol and acetone): substantially insoluble
water-soluble ([3]; water): up to 60 g/l
LD 50 (oral LD 50 in rats): greater than 2000 mg/Kg
